Earlier results on 1 molecule are cited in patent publication US11058672B2, “Pharmaceutical compositions and methods for producing low impurity concentrations of the same” (Chiesi Farmaceutici S.p.A., priority 2008, dated 2021).

Turning to `CCCC(=O)OCOC(=O)C1=C(C)NC(C)=C(C(=O)OC)C1c1cccc(Cl)c1Cl` (stereo not shown) [Clevidipine, butyroxymethyl methyl 4-(2′,3′-dichlorophenyl)-1,4-dihydro-2,6-dimethyl-3,5-pyridinedicarboxylate], the solubility in water result is given as “practically insoluble”.
